Laboratory results as given in the NIST ThermoML archive (doi:10.1016/j.fluid.2018.07.032).
Numbers after ± are expanded uncertainties.

Conditions: 1825 kPa, Liquid, Pendant drop shape

Row | Compound | interfacial tension (383 K) [mN/m] | interfacial tension (403 K) [mN/m] | interfacial tension (423 K) [mN/m] | interfacial tension (443 K) [mN/m]
1 | CCCCCCCCCCCC [dodecane] + O | 40 ± 0.2 | 36.5 ± 0.2 | 32.9 ± 0.2 | 28.5 ± 0.2
2 | Cc1ccccc1 [toluene] + O | 28.6 ± 0.1 | 26.4 ± 0.1 | 23.8 ± 0.2 | 20.2 ± 0.2
